Active and inactive are the calls of the source. The calls are words filed in the database; no cut-off is given here.

The record followed here is ChEMBL document CHEMBL1147010, “Aziridine-2,3-dicarboxylate inhibitors targeting the major cysteine protease of Trypanosoma brucei as lead trypanocidal agents” (Bioorg Med Chem Lett, 2006).

Test [1] relates to J774. The test can be described thus: Cytotoxicity against J774.1 cell line after 72 hrs. It counts as functional, cell-based. The following applies: Mus musculus, J774, 72 h.
Test [2] concerns Trypanosoma brucei brucei. The test can be described thus: Trypanocidal activity against Trypanosoma brucei brucei after 48 hrs. It counts as functional, organism-based.
For test [3], the target named is Rhodesain (Trypanosoma brucei rhodesiense) (UniProt Q95PM0). The test is described as follows: Inhibition of Trypanosoma brucei rhodesiense rhodesain at 140 uM.
For test [4], the system named is J774. The test can be described thus: Selectivity index, IC50 for J774.1/IC50 for Trypanosoma brucei brucei. In kind it is functional.
Test [5] has as its system J774. The test can be described thus: Cytotoxicity against J774.1 cell line after 48 hrs. It counts as functional, cell-based. The following applies: Mus musculus, J774, 48 h.
Test [6] deals with Rhodesain (Trypanosoma brucei rhodesiense) (UniProt Q95PM0). The test can be described thus: Inhibition of Trypanosoma brucei rhodesiense rhodesain at 200 uM.
For test [7], the target named is T1, Rhodesain (Trypanosoma brucei rhodesiense, UniProt Q95PM0). The test can be described thus: Inhibition of Trypanosoma brucei rhodesiense rhodesain.
Test [8] deals with T1, Rhodesain. The test can be described thus: Inhibition of Trypanosoma brucei rhodesiense rhodesain in presence of 31.6 uM substrate Cbz-Phe-Arg-AMC.

Rhodesain (Trypanosoma brucei rhodesiense), sequence (Q95PM0 1-450): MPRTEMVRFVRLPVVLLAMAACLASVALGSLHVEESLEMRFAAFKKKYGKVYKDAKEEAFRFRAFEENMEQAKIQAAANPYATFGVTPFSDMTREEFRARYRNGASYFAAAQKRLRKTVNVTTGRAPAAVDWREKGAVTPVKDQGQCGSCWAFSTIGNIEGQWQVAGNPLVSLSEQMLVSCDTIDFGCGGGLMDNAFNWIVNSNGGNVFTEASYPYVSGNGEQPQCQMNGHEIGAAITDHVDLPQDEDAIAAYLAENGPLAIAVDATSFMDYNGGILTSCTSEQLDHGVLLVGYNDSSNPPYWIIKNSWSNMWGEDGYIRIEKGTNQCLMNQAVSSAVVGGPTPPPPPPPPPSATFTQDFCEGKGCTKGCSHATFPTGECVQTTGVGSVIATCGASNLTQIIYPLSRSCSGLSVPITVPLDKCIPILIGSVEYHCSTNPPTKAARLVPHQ
T1 sequence (Q95PM0 whole entry): as the sequence (Q95PM0 1-450) above

Regarding `C[C@H](NC(=O)[C@@H](Cc1ccccc1)NC(=O)OC(C)(C)C)C(=O)N1[C@H](C(=O)OCc2ccccc2)[C@H]1C(=O)OCc1ccccc1`, the IC50 – broadly, the concentration that inhibits the measured activity by half – is 43.7 µM in test [1] and 34.3 µM in test [2]. Moreover, the inhibition – broadly, the share of the control response that was lost under treatment – in test [3] is “inactive”. Moreover, the “Ratio IC50” value in test [4] came to 1.3.
The molecule `Cc1ccc(C(=O)Nc2ccc(S(=O)(=O)[O-])c3cc(S(=O)(=O)[O-])cc(S(=O)(=O)[O-])c23)cc1NC(=O)c1cccc(NC(=O)Nc2cccc(C(=O)Nc3cc(C(=O)Nc4ccc(S(=O)(=O)[O-])c5cc(S(=O)(=O)[O-])cc(S(=O)(=O)[O-])c45)ccc3C)c2)c1.[Na+].[Na+].[Na+].[Na+].[Na+].[Na+]` [SURAMIN HEXASODIUM] yielded an IC50 in test [5] of over 1000 µM. Also, in test [6], the inhibition was found to be 31.5%. For the same molecule, in test [2], the midpoint of inhibition, the IC50, lay at 0.31 µM and it took 1 µM to inhibit growth (MIC). For the same molecule, in test [4], the “Ratio IC50” value is over 3225.
Turning to `N=C(N)c1ccc(OCCCCCOc2ccc(C(=N)N)cc2)cc1.O=S(=O)(O)CCO.O=S(=O)(O)CCO` [PENTAMIDINE ISETHIONATE], the IC50 in test [5] worked out at 41.6 µM; in test [2], 0.0029 µM. Besides, the inhibition in test [6] was 27.9%. In test [4], the “Ratio IC50” value worked out at 14345.
Consider `Cl.NCCCC(N)(C(=O)O)C(F)F.O` (stereo unspecified) [EFLORNITHINE HYDROCHLORIDE], for which the IC50 in test [5] was over 1000 µM. For the same molecule, in test [6], the inhibition is 30.7%. Moreover, in test [2], the MIC (commonly the lowest concentration found to suppress growth) is over 1000 µM. Further, the “Ratio IC50” value in test [4] is over 44.
In the case of `Nc1nc(N)nc(Nc2ccc([As]3SCC(CO)S3)cc2)n1` (stereo unspecified) [MELARSOPROL], the half-maximal inhibitory concentration (IC50) in test [5] was 4.3 µM; in test [2], 0.0026 µM. Further, in test [6], the inhibition was 94.3%. Besides, the “Ratio IC50” value in test [4] was 1653.
Take `CCOC(=O)[C@@H]1[C@@H](C(=O)OCC)N1C(=O)[C@@H]1CN1C(=O)[C@H](CC(C)C)NC(=O)OC(C)(C)C`: the IC50 in test [5] is 50 µM; in test [2], 25.7 µM. Further, the Ki (as a rule, the dissociation constant of the complex between target and ligand, obtained from inhibition or displacement) was 0.3 µM in test [7] and 0.36 µM in test [8]. Moreover, the “Ratio IC50” value in test [4] is recorded as 1.9.
